Drawing on the NIST ThermoML archive (doi:10.1016/j.jct.2014.04.012), this text covers mass density for 3 compounds.

± gives the expanded uncertainty stated by the source.

In general, mass density refers to mass per unit of volume.

A short description of this data set: xn = mol fraction of the nth substance listed. As to conditions: 101.3 kPa, Liquid, Pycnometric method.

In the case of `C[N+](C)(C)CCO.[Cl-]` [choline chloride] + OCCOCCO, the mass density runs as follows: (293.15 K, x1 = 0.2) 1120.3 ± 1 kg/m3; (293.15 K, x1 = 0.25) 1122.4 ± 1 kg/m3; (303.15 K, x1 = 0.2) 1113 ± 1 kg/m3; (303.15 K, x1 = 0.25) 1117.9 ± 1 kg/m3; (313.15 K, x1 = 0.2) 1108.9 ± 1 kg/m3; (313.15 K, x1 = 0.25) 1113 ± 1 kg/m3. Further, the mass density amounted to 1103.2 ± 1 kg/m3 (323.15 K, x1 = 0.2) and 1108.3 ± 1 kg/m3 (323.15 K, x1 = 0.25).

Consider `C[N+](C)(C)CCO.[Cl-]` [choline chloride] + Oc1ccccc1, for which the mass density is on record as 1091.3 ± 1 kg/m3 (293.15 K, x1 = 0.2); 1092.7 ± 1 kg/m3 (293.15 K, x1 = 0.25); 1096.6 ± 1 kg/m3 (293.15 K, x1 = 0.333); 1085.1 ± 1 kg/m3 (303.15 K, x1 = 0.2); 1087.3 ± 1 kg/m3 (303.15 K, x1 = 0.25); 1093.8 ± 1 kg/m3 (303.15 K, x1 = 0.333). The mass density was 1081.1 ± 1 kg/m3 (313.15 K, x1 = 0.2); 1083.9 ± 1 kg/m3 (313.15 K, x1 = 0.25); 1087.2 ± 1 kg/m3 (313.15 K, x1 = 0.333); 1076 ± 1 kg/m3 (323.15 K, x1 = 0.2); 1079.5 ± 1 kg/m3 (323.15 K, x1 = 0.25); 1082.5 ± 1 kg/m3 (323.15 K, x1 = 0.333).

On to `OCCOCCOCCO` [triethylene glycol] + C[N+](C)(C)CCO.[Cl-], for which the mass density (293.15 K, x2 = 0.2) is 1120.3 ± 1.1 kg/m3; the mass density (293.15 K, x2 = 0.25) was 1133.1 ± 1.1 kg/m3; the mass density (303.15 K, x2 = 0.2) is 1114.6 ± 1.1 kg/m3; the mass density (303.15 K, x2 = 0.25) is 1126.2 ± 1.1 kg/m3; the mass density (313.15 K, x2 = 0.2) was found to be 1108.9 ± 1.1 kg/m3; the mass density (313.15 K, x2 = 0.25) is given as 1119.3 ± 1.1 kg/m3. Besides, the mass density is, setting by setting: (323.15 K, x2 = 0.2) 1103.2 ± 1.1 kg/m3; (323.15 K, x2 = 0.25) 1112.4 ± 1.1 kg/m3.
